Reference: ChEMBL document CHEMBL4507291 (2021)

Columns and labels:
[1] = molecular target: Macrophage colony-stimulating factor 1 receptor (Homo sapiens) (UniProt P07333)
[2] = molecular target: Ephrin type-A receptor 4 (Homo sapiens) (UniProt P54764)
[3] = molecular target: Serine/threonine-protein kinase MRCK gamma (Homo sapiens) (UniProt Q6DT37)
[4] = molecular target: D(3) dopamine receptor (Homo sapiens) (UniProt P35462); conditions: Compound concentration 10.0 uM
[5] = molecular target: T1, Mitogen-activated protein kinase kinase kinase 5 (Homo sapiens) (UniProt Q99683)
T1 sequence (whole entry): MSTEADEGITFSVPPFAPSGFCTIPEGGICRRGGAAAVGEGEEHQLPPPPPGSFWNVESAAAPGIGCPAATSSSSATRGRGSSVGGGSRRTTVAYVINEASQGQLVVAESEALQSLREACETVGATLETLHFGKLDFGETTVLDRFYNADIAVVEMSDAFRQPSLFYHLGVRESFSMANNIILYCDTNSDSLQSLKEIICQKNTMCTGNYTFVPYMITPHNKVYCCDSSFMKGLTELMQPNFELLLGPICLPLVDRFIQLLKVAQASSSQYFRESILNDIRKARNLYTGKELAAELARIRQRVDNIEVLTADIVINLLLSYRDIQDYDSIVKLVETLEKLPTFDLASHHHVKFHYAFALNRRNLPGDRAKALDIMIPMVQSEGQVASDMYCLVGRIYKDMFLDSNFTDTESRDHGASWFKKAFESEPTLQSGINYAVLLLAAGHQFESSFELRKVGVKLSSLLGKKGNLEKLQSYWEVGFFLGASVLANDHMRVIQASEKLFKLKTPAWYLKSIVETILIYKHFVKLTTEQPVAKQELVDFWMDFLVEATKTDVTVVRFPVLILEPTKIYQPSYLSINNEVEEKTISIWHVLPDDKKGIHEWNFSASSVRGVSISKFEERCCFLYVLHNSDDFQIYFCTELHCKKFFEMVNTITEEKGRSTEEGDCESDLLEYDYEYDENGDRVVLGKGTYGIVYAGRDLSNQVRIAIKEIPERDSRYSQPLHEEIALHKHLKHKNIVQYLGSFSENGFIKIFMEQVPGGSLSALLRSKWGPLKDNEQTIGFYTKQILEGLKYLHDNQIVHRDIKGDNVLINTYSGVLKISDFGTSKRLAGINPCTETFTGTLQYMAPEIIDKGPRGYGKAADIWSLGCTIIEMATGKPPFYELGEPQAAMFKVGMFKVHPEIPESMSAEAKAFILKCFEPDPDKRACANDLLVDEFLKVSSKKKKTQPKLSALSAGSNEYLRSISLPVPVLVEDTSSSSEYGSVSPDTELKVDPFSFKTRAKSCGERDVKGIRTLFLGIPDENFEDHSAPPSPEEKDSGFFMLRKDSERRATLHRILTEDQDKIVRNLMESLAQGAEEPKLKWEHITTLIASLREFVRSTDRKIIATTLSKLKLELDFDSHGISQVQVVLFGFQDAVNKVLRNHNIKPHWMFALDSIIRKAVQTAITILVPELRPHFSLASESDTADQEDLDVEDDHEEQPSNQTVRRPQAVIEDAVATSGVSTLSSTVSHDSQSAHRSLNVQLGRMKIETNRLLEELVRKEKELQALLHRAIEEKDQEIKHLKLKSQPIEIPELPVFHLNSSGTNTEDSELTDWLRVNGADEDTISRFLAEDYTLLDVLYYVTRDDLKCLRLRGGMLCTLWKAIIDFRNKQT

[6] = tested on: Phosphatidylinositol 4,5-bisphosphate 3-kinase catalytic subunit alpha isoform (Homo sapiens), P42336 [M1043I]
[7] = molecular target: Mitogen-activated protein kinase 1 (Homo sapiens) (UniProt P28482)
[8] = molecular target: Phosphatidylinositol 4,5-bisphosphate 3-kinase catalytic subunit delta isoform (Homo sapiens) (UniProt O00329)
[9] = molecular target: T2, Homeodomain-interacting protein kinase 4 (Homo sapiens) (UniProt Q8NE63)
T2 sequence (whole entry): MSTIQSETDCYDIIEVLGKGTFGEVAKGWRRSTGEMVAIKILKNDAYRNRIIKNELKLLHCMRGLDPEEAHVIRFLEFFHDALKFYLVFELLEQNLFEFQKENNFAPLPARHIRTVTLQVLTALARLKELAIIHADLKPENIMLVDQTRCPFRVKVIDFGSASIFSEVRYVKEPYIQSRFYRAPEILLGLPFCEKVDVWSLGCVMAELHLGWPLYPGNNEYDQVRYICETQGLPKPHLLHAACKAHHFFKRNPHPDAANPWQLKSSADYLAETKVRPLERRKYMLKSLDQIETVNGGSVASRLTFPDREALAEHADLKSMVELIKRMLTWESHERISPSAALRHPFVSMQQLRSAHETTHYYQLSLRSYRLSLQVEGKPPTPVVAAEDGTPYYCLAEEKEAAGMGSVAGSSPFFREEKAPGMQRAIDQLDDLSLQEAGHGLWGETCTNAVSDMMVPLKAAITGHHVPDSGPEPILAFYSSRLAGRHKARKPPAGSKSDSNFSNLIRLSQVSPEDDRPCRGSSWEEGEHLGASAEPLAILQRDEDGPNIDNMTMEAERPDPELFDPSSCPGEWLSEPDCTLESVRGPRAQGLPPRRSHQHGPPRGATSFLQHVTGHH

[10] = molecular target: Mitotic checkpoint serine/threonine-protein kinase BUB1 (Homo sapiens) (UniProt O43683)
[11] = molecular target: Serine/threonine-protein kinase Nek11 (Homo sapiens) (UniProt Q8NG66)
[12] = molecular target: Ribosomal protein S6 kinase alpha-5 (Homo sapiens) (UniProt O75582)
[13] = Compound concentration 1000.0 nM
[14] = Compound concentration 100.0 nM

Ribosomal protein S6 kinase alpha-5 (Homo sapiens), sequence (O75582 whole entry, looked up): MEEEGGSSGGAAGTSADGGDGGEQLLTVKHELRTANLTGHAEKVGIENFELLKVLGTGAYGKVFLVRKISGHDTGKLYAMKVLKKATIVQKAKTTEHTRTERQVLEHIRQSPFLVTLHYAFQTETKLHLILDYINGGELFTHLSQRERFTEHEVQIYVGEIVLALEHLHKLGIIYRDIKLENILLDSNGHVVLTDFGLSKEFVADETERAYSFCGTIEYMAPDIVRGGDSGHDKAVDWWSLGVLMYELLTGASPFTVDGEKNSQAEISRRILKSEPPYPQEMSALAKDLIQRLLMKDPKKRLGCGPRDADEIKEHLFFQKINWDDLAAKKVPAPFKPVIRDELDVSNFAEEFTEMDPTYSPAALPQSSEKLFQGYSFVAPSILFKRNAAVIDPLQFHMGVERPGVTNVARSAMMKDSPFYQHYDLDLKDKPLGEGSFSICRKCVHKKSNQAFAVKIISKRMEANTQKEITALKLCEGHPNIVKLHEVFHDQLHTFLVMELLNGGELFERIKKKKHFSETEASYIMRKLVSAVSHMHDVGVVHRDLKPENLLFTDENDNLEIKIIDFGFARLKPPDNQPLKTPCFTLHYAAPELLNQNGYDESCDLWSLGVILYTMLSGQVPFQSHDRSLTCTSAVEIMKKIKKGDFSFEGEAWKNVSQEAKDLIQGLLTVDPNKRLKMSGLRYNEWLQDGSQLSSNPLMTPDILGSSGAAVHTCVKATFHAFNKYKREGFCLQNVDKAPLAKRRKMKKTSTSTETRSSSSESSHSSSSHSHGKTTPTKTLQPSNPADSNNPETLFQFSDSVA
Mitotic checkpoint serine/threonine-protein kinase BUB1 (Homo sapiens), sequence (O43683 whole entry, looked up): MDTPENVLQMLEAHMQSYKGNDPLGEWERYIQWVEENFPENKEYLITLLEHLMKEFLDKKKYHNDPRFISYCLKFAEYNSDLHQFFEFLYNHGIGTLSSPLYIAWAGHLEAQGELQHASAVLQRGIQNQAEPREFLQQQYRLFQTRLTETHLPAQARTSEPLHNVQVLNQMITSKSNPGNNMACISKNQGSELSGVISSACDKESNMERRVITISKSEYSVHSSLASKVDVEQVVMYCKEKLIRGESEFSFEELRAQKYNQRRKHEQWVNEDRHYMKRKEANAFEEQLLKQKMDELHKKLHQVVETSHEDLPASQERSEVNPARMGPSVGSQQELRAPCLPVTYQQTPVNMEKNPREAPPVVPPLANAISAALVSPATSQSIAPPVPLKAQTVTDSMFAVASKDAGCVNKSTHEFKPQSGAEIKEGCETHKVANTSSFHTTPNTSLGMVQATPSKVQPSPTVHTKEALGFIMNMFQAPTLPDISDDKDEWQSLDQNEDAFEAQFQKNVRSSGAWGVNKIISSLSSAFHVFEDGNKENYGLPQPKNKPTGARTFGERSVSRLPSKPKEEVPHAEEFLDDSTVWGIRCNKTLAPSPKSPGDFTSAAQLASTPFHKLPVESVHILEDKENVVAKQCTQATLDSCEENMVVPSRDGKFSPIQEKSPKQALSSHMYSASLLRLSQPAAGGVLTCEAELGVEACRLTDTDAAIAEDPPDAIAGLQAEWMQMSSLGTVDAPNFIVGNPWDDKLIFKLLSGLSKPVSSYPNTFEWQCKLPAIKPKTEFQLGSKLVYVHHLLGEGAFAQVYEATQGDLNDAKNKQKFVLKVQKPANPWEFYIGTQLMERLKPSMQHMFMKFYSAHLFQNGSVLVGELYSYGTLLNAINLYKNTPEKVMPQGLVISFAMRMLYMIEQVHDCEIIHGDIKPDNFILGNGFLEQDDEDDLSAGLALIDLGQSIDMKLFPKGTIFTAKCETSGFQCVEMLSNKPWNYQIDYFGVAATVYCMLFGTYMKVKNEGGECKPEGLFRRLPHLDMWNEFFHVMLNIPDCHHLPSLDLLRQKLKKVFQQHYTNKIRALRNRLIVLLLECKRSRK
Ephrin type-A receptor 4 (Homo sapiens), sequence (P54764 whole entry): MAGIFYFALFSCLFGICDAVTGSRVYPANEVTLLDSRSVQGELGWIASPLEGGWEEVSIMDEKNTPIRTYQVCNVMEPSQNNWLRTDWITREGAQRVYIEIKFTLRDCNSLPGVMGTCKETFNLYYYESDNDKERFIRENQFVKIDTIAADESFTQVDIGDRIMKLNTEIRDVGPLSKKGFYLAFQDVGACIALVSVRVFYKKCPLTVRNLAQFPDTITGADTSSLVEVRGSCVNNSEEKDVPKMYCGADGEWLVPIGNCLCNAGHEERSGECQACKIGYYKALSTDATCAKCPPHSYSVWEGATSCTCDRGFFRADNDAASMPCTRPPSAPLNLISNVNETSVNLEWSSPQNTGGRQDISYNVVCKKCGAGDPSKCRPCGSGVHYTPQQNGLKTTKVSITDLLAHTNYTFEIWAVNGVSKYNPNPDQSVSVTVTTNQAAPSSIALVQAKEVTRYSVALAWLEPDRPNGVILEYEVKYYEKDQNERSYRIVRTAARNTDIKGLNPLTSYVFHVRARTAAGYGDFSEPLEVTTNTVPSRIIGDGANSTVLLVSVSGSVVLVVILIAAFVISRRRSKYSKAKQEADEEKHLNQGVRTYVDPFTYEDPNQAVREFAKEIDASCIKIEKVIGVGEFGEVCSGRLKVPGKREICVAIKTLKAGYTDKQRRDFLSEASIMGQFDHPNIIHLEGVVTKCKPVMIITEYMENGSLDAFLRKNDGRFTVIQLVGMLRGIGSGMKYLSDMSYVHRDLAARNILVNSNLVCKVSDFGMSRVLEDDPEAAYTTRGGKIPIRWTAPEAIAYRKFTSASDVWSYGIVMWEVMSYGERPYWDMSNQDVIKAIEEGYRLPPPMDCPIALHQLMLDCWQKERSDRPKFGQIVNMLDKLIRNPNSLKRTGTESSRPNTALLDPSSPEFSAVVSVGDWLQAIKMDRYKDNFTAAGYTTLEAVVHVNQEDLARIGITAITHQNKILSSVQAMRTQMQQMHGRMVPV
D(3) dopamine receptor (Homo sapiens), sequence (P35462 whole entry): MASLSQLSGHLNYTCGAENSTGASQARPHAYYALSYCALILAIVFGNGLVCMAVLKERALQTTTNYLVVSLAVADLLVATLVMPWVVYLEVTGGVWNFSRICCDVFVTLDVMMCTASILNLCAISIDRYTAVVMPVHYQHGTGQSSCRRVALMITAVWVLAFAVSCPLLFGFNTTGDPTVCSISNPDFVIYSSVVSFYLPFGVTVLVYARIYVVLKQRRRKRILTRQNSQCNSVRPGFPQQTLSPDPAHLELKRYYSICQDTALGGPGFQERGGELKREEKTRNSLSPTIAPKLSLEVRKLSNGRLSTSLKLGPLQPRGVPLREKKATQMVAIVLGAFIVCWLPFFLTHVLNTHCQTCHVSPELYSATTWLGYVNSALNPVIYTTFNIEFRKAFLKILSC
Serine/threonine-protein kinase MRCK gamma (Homo sapiens), sequence (Q6DT37 whole entry): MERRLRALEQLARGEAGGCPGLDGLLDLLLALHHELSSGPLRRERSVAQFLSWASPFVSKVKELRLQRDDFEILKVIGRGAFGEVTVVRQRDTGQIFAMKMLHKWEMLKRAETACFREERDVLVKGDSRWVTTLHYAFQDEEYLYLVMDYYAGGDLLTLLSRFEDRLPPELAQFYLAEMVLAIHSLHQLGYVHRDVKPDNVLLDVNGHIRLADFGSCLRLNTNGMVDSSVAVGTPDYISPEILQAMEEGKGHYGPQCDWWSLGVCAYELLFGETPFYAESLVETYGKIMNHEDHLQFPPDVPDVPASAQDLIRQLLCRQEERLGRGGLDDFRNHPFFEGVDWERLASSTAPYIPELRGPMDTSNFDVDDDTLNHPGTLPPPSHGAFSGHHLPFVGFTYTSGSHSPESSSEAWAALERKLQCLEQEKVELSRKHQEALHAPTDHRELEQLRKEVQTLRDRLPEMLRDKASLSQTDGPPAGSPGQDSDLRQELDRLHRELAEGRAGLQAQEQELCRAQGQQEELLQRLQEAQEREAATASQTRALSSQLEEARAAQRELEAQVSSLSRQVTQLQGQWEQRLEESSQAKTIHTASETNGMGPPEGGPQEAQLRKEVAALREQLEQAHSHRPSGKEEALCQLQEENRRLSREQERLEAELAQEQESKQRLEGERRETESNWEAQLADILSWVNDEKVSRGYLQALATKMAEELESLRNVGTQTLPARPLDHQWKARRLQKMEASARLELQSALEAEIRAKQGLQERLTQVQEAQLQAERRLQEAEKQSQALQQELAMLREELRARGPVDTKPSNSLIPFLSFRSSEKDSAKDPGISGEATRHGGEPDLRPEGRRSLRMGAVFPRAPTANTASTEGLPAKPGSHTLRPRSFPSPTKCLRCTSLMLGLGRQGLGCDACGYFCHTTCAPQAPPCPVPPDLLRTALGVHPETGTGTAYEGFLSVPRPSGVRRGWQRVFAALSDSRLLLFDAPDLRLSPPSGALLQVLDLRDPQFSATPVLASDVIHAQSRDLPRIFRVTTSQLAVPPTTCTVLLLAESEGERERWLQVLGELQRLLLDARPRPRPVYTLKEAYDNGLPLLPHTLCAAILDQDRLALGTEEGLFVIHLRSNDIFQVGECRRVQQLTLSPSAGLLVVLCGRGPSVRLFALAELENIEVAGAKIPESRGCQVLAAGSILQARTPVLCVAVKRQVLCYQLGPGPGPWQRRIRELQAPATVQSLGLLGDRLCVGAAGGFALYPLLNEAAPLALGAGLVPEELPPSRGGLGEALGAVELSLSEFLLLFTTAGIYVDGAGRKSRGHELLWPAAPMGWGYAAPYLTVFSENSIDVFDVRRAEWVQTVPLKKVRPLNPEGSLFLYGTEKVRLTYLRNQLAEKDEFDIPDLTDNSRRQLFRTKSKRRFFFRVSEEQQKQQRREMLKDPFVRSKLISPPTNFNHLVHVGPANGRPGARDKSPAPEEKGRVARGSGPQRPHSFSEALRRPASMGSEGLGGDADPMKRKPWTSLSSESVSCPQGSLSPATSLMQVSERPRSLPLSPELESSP

C[C@@H]1CN(c2cc(-c3nn(C)c4ccc(OC5(C)CC5)cc34)ncn2)C[C@H](C)O1 [MLi-2-NC]
inactive: residual activity [1, 13] 100% | residual activity [2, 13] 100% | residual activity [3, 13] 100% | inhibition [4] 2.71% | residual activity [5, 13] 100% | residual activity [6, 13] 96% | residual activity [7, 13] 100% | residual activity [8, 13] 97% | residual activity [9, 13] 79% | residual activity [10, 13] 89% | residual activity [11, 13] 58% | residual activity [12, 13] 79%

C[C@@H]1CN(c2cc(-c3n[nH]c4ccc(OC5(C)CC5)cc34)ncn2)C[C@H](C)O1 [MLi-2]
inactive: residual activity [1, 14] 91% | residual activity [2, 14] 89% | residual activity [3, 14] 89% | inhibition [4] -0.66% | residual activity [5, 14] 88% | residual activity [6, 14] 82% | residual activity [7, 14] 98% | residual activity [8, 14] 68% | residual activity [9, 14] 97% | residual activity [10, 14] 84% | residual activity [11, 14] 100% | residual activity [12, 14] 89%
